The results in this text go back to ChEMBL document CHEMBL5465560, “Selectivity Literature for EUbOPEN Chemogenomic Library” (2024).

Assay [1] concerns the target cAMP-dependent protein kinase catalytic subunit alpha (Homo sapiens, UniProt P17612). The experiment in a line: Selectivity interaction (Kinase panel (Z-LYTE Assay)) EUB0001632a PRKACA. Particulars: at 10 µM.
In assay [2] the target is Glycogen synthase kinase-3 alpha (Homo sapiens, UniProt P49840). The experiment in a line: Selectivity interaction (Competition-binding assay (DiscoverX)) EUB0001632a GSK3A.
The target of assay [3] is T1, Ankyrin repeat and protein kinase domain-containing protein 1 (Homo sapiens) (UniProt Q8NFD2).
T1 sequence (whole entry): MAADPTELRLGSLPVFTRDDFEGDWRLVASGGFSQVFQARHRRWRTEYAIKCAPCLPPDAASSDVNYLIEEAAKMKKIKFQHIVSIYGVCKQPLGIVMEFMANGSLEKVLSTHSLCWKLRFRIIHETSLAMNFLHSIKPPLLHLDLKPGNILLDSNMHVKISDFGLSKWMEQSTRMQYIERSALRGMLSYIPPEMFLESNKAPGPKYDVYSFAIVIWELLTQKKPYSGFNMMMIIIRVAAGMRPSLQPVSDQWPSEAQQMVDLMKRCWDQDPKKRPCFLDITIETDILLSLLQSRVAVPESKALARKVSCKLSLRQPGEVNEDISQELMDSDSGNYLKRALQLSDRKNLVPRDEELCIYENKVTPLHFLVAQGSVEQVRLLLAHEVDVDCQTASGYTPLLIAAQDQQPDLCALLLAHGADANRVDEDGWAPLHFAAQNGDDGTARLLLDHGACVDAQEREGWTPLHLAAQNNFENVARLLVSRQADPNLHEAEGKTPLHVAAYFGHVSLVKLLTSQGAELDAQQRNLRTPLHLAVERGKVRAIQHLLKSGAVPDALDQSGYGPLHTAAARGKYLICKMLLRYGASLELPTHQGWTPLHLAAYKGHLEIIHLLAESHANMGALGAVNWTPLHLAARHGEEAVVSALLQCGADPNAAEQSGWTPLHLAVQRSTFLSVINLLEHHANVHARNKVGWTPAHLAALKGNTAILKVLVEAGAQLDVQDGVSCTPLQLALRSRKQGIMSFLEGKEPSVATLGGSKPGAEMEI
Particulars: at 10 µM.

The target in assay [4] is LIM domain kinase 1 (Homo sapiens) (UniProt P53667). Nature of the assay: Selectivity interaction (KinomeScan (DiscoverX)) EUB0000607a LIMK1. Particulars: at 10 µM.
Assay [5] addresses DNA-dependent protein kinase catalytic subunit (Homo sapiens) (UniProt P78527). Nature of the assay: Selectivity interaction (ActivX KiNativ screen (kinase selectivity in THP-1 cell lysates)) EUB0000639a PRKDC. It is filed as subcellular. As to conditions: lysate.
Assay [6] addresses Tyrosine-protein kinase HCK (Homo sapiens) (UniProt P08631). Nature of the assay: Selectivity interaction (KinomeScan (DiscoverX)) EUB0001049a HCK. Particulars: at 1 µM.
Assay [7] has as its target Serine/threonine-protein kinase NIM1 (Homo sapiens, UniProt Q8IY84). The experiment in a line: Selectivity interaction (KinomeScan (DiscoverX)) EUB0001049a NIM1K. Particulars: at 1 µM.
Assay [8] concerns the target Ribosomal protein S6 kinase alpha-5 (Homo sapiens) (UniProt O75582). The experiment in a line: Selectivity interaction (KinomeScan (DiscoverX)) EUB0001049a RPS6KA5. As to conditions: at 1 µM.
Assay [9] addresses T2, Histone-lysine N-methyltransferase EHMT1 (Homo sapiens) (UniProt Q9H9B1).
T2 sequence (whole entry): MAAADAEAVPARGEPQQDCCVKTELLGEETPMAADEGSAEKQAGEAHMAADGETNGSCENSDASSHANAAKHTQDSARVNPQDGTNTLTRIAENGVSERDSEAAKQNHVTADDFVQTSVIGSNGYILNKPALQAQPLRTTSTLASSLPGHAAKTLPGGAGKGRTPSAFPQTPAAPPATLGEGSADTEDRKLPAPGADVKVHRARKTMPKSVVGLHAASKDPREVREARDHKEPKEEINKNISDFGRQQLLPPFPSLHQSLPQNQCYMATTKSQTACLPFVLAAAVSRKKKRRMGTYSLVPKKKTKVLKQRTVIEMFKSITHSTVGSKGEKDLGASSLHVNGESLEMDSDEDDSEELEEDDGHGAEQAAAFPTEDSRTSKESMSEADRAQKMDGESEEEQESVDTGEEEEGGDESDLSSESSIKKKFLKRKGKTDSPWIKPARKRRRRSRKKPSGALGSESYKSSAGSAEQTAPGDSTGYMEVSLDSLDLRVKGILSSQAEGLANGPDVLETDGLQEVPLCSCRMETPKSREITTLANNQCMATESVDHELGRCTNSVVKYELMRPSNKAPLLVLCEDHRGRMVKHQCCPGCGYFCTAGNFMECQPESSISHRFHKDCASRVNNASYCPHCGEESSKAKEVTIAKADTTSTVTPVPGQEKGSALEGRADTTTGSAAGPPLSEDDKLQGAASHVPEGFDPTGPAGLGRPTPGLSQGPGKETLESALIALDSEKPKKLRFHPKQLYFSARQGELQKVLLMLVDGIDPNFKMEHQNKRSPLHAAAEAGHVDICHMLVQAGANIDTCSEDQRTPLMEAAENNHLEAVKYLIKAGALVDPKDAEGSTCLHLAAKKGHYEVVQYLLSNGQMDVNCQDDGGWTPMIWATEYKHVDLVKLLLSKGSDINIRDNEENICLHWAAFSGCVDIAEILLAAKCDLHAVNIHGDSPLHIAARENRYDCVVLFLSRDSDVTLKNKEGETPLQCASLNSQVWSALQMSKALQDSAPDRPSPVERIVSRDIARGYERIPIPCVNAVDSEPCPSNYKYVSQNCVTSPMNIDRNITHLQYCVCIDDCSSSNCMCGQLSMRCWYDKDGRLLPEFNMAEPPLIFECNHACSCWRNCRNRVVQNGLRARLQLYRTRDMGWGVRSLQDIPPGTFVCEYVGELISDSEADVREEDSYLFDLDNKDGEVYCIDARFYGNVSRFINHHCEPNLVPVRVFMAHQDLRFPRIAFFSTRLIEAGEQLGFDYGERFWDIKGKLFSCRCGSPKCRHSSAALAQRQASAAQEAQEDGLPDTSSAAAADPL
Nature of the assay: Selectivity interaction (Transferase panel (protein, RNA, and DNA methyltransferases. and EP300 (acetyltransferase))) EUB0000270b EHMT1.

In assay [10] the target is Calcium/calmodulin-dependent protein kinase type II subunit delta (Homo sapiens) (UniProt Q13557). The experiment in a line: Selectivity interaction (KinomeScan (DiscoverX)) EUB0000618a CAMK2D. Particulars: at 10 µM.
Assay [11] has as its target STE20-like serine/threonine-protein kinase (Homo sapiens, UniProt Q9H2G2). Nature of the assay: Selectivity interaction (KinomeScan (DiscoverX)) EUB0000229b SLK. Particulars: at 10 µM.

Where only a bound is given, the exact number is not on record here.

Chain of DNA-dependent protein kinase catalytic subunit (Homo sapiens) (P78527 whole entry): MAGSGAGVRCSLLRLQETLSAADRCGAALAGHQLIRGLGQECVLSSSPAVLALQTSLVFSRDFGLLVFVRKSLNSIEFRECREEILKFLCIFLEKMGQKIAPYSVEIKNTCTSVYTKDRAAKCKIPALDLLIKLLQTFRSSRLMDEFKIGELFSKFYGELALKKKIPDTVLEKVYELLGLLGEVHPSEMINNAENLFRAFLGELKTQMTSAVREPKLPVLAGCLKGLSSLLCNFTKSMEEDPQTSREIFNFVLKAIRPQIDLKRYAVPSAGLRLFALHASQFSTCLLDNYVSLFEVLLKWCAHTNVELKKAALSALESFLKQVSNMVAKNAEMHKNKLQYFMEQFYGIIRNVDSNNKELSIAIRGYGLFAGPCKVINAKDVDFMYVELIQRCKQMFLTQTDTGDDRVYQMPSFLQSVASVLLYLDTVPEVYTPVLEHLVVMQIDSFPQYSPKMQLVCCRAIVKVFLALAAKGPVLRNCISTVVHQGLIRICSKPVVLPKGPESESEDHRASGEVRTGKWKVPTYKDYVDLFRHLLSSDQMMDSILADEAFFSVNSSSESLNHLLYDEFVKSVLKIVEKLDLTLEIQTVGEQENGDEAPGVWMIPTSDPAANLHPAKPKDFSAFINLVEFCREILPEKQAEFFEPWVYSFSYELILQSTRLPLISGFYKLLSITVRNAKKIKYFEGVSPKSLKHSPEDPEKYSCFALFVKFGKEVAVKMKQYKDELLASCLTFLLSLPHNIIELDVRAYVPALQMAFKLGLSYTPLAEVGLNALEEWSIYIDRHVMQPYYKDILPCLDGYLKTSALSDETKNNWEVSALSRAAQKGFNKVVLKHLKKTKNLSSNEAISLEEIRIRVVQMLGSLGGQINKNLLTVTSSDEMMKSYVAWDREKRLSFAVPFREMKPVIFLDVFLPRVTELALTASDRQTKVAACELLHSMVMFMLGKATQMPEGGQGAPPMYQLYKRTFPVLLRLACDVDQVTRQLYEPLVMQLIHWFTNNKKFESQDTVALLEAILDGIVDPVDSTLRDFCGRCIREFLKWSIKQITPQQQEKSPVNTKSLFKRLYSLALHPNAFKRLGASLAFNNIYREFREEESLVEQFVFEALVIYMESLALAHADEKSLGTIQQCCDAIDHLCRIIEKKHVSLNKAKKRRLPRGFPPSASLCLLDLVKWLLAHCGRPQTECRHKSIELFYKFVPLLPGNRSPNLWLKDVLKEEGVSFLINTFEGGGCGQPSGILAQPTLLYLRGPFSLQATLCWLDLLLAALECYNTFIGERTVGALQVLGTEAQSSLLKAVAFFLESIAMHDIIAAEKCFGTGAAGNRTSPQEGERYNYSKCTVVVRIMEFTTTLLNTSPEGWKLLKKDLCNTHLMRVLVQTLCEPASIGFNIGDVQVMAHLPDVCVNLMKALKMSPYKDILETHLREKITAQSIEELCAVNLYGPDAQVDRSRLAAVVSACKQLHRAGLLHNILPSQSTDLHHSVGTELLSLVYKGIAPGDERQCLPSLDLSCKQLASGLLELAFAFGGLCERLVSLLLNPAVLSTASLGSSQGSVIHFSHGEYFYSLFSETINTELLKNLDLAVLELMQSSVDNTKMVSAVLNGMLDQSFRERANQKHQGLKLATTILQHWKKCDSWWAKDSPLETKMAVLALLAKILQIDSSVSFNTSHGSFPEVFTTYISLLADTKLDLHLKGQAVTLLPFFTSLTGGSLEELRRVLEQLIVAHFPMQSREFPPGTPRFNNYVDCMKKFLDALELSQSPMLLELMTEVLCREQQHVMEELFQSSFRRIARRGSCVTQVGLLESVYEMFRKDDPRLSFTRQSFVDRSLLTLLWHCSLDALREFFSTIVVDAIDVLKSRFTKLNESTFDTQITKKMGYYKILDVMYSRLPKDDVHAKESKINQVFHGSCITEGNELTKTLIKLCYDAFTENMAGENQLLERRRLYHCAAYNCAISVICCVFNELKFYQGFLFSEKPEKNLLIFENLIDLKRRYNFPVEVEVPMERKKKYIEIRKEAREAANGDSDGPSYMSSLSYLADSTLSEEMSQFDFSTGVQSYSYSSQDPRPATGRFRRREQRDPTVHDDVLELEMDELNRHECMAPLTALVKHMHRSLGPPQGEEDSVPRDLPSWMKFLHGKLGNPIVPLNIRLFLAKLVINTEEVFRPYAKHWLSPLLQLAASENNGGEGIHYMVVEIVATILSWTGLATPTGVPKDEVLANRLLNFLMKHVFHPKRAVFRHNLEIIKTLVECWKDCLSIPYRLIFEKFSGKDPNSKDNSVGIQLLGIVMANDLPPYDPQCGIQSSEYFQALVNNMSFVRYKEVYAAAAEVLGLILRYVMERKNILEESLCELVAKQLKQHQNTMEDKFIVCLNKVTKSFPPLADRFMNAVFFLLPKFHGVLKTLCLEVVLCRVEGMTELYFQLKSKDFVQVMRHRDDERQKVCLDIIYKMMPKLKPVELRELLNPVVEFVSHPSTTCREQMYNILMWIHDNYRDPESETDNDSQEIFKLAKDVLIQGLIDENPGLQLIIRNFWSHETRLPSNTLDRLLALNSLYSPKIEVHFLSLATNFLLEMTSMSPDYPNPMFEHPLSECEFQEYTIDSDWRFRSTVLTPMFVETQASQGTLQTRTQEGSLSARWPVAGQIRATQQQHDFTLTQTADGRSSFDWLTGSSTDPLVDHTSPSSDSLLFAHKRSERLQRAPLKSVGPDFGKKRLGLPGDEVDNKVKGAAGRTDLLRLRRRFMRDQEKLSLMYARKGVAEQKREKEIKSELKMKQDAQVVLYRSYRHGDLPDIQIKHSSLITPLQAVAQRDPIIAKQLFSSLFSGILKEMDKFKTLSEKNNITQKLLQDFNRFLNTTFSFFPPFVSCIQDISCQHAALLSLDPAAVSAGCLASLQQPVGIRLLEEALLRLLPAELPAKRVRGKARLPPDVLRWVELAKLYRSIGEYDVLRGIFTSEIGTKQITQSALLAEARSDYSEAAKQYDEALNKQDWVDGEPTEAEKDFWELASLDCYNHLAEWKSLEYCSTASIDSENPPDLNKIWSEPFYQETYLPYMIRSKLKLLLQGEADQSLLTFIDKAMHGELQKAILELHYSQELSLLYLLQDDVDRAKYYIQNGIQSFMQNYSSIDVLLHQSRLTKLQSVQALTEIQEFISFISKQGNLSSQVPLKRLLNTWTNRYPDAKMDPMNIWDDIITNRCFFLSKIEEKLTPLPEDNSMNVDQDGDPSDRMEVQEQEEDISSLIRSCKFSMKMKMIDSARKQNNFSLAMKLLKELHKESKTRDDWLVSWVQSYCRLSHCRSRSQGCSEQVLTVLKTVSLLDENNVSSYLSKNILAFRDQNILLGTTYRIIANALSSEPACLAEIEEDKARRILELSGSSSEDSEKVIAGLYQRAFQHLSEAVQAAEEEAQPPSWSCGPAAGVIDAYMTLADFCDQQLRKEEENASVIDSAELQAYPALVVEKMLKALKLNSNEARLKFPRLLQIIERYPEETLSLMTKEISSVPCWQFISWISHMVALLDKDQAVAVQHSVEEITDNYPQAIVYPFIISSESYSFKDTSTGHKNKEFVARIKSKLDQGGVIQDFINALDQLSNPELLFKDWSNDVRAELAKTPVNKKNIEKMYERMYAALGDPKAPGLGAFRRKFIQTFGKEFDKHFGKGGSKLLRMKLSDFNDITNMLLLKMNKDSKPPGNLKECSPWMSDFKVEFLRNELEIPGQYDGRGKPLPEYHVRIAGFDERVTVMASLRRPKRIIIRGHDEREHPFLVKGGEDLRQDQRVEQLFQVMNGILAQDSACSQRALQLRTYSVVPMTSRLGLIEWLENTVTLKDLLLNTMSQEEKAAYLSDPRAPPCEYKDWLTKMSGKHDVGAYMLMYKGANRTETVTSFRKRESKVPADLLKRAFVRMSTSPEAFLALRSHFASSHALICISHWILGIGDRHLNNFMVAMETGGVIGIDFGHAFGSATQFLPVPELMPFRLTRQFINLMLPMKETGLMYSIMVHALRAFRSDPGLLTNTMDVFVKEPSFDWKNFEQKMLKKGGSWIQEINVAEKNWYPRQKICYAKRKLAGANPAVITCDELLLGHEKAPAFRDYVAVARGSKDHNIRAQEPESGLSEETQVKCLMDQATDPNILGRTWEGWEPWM
Chain of Tyrosine-protein kinase HCK (Homo sapiens) (P08631 2-526 limits assumed): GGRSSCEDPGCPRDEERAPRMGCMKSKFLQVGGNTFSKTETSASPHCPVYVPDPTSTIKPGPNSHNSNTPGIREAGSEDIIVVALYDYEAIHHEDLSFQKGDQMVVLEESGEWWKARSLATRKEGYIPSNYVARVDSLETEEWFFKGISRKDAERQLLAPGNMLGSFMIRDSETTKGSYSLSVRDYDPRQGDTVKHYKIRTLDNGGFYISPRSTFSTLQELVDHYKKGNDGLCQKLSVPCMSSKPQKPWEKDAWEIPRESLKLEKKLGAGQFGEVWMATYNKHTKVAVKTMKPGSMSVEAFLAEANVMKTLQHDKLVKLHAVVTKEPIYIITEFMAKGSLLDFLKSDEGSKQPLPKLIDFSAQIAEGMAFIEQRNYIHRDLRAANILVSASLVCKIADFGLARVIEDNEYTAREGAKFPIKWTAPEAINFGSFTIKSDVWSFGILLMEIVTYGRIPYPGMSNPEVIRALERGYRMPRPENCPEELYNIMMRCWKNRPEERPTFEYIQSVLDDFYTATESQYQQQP
Chain of Serine/threonine-protein kinase NIM1 (Q8IY84 whole entry): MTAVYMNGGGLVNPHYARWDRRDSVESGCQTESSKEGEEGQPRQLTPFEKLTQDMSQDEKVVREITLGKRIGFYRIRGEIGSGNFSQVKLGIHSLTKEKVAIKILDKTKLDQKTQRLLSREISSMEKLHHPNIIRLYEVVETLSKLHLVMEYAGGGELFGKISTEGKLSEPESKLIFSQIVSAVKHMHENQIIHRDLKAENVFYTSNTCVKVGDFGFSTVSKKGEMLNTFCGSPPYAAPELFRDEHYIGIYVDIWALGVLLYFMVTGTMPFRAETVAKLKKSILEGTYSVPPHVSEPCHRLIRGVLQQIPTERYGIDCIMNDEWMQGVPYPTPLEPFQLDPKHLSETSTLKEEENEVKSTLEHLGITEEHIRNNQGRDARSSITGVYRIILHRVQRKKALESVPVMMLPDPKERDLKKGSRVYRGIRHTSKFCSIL

Regarding `Cn1cc(-n2cnc3c(NCc4nc5cc(Cl)c(Cl)cc5[nH]4)nc(N4CCOCC4)nc32)cn1`, the % of control in assay [1] came to 1.33%. Besides, the Kd in assay [2] was 1200 nM.
With `COCC(=O)NC/C=C/c1ccc2ncnc(Nc3ccc(Oc4ccc(C)nc4)c(C)c3)c2c1` [CP-724714], the % of control in [3] was 60%.
`CNC(=O)Nc1ccc(-c2nc(N3CC4CCC(C3)O4)c3cnn(C4CCC5(CC4)OCCO5)c3n2)cc1` came in with a % of control in assay [4] of 95%.
As to `CC[C@@H]1[C@H](F)C(=O)N[C@@H]1COc1nccc2cc(C(N)=O)c(OC)cc12` [ZIMLOVISERTIB], the % of inhibition in [5] (at 0.01 µM) is -17.9%; in [5] (at 0.04 µM) it was -5.4%; in assay [5] (at 0.2 µM) it was 5%; in assay [5] (at 1 µM), 12.5%; in assay [5] (at 5 µM), -1.4%.
For `COc1cc(Nc2nc(C)cc(-c3cnn4nc(OC)ccc34)n2)cc(C(F)(F)F)c1`, the % of control in assay [6] was 100%; in assay [7] it was 94%; in [8] it was 95%.
For the molecule `Cc1cc(CN)cc(C)c1-c1ncn(C)c1-c1cncn1C`, the figures for the % activity in assay [9] (at 1 µM) and in assay [9] (at 10 µM) were above 90% and above 80%, respectively.
For `O[C@H]1CC[C@H](Nc2ncc3nc(Nc4c(F)cc(F)cc4F)n([C@H]4CCOC4)c3n2)CC1`, the % of control in assay [10] came to 76%.
Regarding `COc1cc(N(C)c2ccnc3ccc(C(F)(F)F)cc23)cc(OC)c1OC`, the % binding in [11] worked out at 31%.
